Values after ≈ are worked out from the molar mass of the structure shown.
Tested on: colorectal cancer tumor cells with the SMAD4^R361H mutation
Assay: Cell viability (CellTiterGlo) of patient-derived colorectal tumor cells in Matrigel, SMAD4 R361H
Assay type: cell-based
Details: Homo sapiens, 96 h, SMAD4^R361H loss-of-function mutation, 4-day treatment, FIG. 4, read-out: trametinib concentration at which tumor cell viability decreases below the IC50
Experimental: The mean inhibitory concentration, further referred to as IC50, is the concentration of an inhibitor at which half-maximal inhibition is observed. […] For the experiment, the biological tumor samples were dissociated by incubation with TrypLE Express solution (ThermoFisher Scientific, Germany) and 1.5×10^3 cells per well were seeded in four replicates in Matrigel and overlaid with culture medium. After 3-day incubation at 37° C. in 5% CO2, medium was removed and fresh medium containing trametinib was added. Trametinib was tested in four 1:5 dilution concentrations. Following concentrations were tested: 0.1 μg/ml, 0.02 μg/ml, 0.004 μg/ml and 0.0008 μg/ml. Cells treated with DMSO were used as control while Matrigel only was used for background readout. Staurosporine was used as internal positive control. After 4-day treatment, cell viability was determined by CellTiterGlo® assay. Cell plating, treatment and testing were handled by Biomek FXP Liquid Handler (Beckman Coulter).

IC50: 6 ng/mL (≈ 9.75 nM)
SMILES: CC(=O)Nc1cccc(-n2c(=O)n(C3CC3)c(=O)c3c(Nc4ccc(I)cc4F)n(C)c(=O)c(C)c32)c1 [trametinib, N-(3-{3-Cyclopropyl-5-[(2-fluor-4-iodphenyl)amino]-6,8-dimethyl-2,4,7-trioxo-3,4,6,7-tetrahydropyrido[4,3-d]pyrimidin-1(2H)-yl}phenyl)acetamid]

From patent US20240076742A1, “METHODS FOR IMPROVED CANCER TREATMENT” (CELLPHENOMICS GMBH, priority 2020, published 2024)
